Source: publication PMC4885109, “Rapid Discovery and Structure–Activity Relationships of Pyrazolopyrimidines That Potently Suppress Breast Cancer Cell Growth via SRC Kinase Inhibition with Exceptional Selectivity over ABL Kinase” (Journal of Medicinal Chemistry, 2016)
Like-named read-outs stand apart in the source and are kept apart here.

Experiments:
MCF7 cells [1] = assay: Dose-response viability assay (PrestoBlue), MCF7; assay type: cell-based; settings: Homo sapiens, MCF7, 120 h; 5 d, PrestoBlue cell viability
MCF7 cells [2] = assay: Time-lapse cell growth assay (IncuCyte ZOOM); assay type: cell-based, human; settings: for antiproliferative mode of action by time-lapse imaging: 1–100 μM
BLK = BLK (Homo sapiens, UniProt P51451); assay: biochemical
HCK = HCK (Homo sapiens, UniProt P08631); assay: biochemical
LCK = LCK (Homo sapiens, UniProt P06239); assay: Kinase screening assay, 33P radioisotope (Reaction Biology); assay type: biochemical; settings: recombinant kinase, 10 μM ATP
FRK/PTK5 = FRK/PTK5 (Homo sapiens, UniProt P42685); assay: biochemical
LYN = LYN (Homo sapiens, UniProt P07948); assay: biochemical
FGR = FGR (Homo sapiens, UniProt P09769); assay: Kinase screening assay, 33P radioisotope (Reaction Biology); assay type: biochemical
[3] = test system: phospho-SRC^Y416 and phospho-FAK in MDA-MB-231 cells
MCF7 cells [4] = test system: MCF7 cells
CYP3A4 = CYP3A4 (Homo sapiens, UniProt P08684); settings: 10 μM
CYP2C9 = CYP2C9 (Homo sapiens, UniProt P11712); settings: 10 μM
CYP2D6 = CYP2D6 (Homo sapiens, UniProt P10635); settings: 10 μM
in vivo = settings: female, CD1, mouse, blood/plasma, 10 mg/kg
physchem = settings: pH 7.4
in vitro [5] = settings: human, cryopreserved pooled primary hepatocytes
in vitro [6] = settings: mouse, cryopreserved pooled primary hepatocytes
CYP1A2 = biological target: T1, CYP1A2 (Homo sapiens, UniProt P05177); settings: 10 μM
T1 sequence (P05177 1-516): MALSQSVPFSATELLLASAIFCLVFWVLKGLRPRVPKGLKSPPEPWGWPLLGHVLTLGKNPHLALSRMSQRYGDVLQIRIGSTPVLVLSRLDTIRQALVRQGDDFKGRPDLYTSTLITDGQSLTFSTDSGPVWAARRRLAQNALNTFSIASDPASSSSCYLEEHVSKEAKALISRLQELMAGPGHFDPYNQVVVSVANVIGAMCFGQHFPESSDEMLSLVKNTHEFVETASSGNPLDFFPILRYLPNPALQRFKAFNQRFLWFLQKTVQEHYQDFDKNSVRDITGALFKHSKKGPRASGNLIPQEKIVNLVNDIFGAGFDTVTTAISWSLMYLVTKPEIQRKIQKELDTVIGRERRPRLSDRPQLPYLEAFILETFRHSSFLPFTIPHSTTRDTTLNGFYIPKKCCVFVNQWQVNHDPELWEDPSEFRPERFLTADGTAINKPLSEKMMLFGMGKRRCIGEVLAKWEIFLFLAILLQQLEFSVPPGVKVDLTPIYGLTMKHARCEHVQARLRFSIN

CYP2C19 = CYP2C19 (Homo sapiens, UniProt P33261); settings: 10 μM
[7] = test system: SYF murine embryonic fibroblasts (SRC-/-, YES-/-, FYN-/-); assay: Dose-response proliferation study in SYF cells; assay type: cell-based, mouse; settings: compared with dasatinib
ABL = ABL (Homo sapiens, UniProt P00519); assay: Kinase screening assay, 33P radioisotope (Reaction Biology)
MDA-MB-231 cells [8] = assay: Dose-response viability assay (PrestoBlue), MDA-MB-231; assay type: cell-based, human; settings: for decrease in antiproliferative activity relative to 11a: MDA-MB-231
SRC = SRC (Homo sapiens, UniProt P12931); assay: Kinase screening assay, 33P radioisotope (Reaction Biology)
[9] = human, rat, 24 h
[10] = test system: Tg(brn3c:mGFP) zebrafish embryos; assay type: in vivo; settings: 1–10 μM (compatible with embryo survival)
MDA-MB-231 cells [11] = assay: cells; settings: Homo sapiens, MDA-MB-231, 24 h, read-out: IC50, MDA-MB-231 Cell Migration After 24h
[12] = cited from earlier work
[13] = cited from earlier work; for % F / Cmax / Tmax: PO
[14] = recombinant kinase, 10 μM ATP, read-out: IC50 (FGR)
[15] = 5 mg/kg ref Kamath et al., 2008

FGR, sequence (P09769 whole entry): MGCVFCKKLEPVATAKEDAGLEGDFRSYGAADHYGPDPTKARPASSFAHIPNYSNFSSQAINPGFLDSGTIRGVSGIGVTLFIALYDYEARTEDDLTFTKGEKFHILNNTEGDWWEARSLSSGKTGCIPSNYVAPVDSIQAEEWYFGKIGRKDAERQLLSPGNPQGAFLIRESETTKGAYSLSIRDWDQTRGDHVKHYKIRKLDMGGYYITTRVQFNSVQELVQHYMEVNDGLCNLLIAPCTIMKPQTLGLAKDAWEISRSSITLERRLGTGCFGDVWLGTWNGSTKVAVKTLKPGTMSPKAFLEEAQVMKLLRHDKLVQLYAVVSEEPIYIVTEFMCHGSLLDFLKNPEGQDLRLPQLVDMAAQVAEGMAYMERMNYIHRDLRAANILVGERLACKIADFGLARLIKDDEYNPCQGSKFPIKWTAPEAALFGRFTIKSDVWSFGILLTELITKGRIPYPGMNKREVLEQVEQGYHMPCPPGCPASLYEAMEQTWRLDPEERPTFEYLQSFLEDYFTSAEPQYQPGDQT
LYN, sequence (P07948 whole entry): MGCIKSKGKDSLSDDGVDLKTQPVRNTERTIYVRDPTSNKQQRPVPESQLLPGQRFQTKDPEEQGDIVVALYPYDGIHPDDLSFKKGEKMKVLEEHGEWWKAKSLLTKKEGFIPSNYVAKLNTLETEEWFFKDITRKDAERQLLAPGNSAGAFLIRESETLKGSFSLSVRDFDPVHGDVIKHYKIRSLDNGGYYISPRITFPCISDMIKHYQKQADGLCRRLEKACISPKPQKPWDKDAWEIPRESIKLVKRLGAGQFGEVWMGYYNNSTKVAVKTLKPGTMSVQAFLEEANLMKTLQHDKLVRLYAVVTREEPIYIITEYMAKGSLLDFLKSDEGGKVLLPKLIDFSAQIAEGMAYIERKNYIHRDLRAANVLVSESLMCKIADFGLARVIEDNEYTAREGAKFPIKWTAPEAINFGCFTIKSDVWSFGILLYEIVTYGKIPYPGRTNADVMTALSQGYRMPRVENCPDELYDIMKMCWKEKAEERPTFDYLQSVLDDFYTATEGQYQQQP
FRK/PTK5, sequence (P42685 whole entry): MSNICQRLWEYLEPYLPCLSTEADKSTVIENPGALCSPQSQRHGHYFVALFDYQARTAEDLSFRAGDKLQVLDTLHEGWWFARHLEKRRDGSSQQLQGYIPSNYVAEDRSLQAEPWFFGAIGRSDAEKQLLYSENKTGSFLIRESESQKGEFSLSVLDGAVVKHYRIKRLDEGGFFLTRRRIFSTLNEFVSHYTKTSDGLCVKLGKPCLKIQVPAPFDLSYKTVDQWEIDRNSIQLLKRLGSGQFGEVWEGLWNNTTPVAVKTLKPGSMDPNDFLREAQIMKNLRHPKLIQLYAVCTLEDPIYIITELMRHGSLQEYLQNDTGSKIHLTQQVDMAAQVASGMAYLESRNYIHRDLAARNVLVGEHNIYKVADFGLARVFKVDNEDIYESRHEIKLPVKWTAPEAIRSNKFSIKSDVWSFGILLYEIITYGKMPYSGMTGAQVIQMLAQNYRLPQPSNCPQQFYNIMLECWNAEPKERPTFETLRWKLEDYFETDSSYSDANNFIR
HCK, sequence (P08631 whole entry): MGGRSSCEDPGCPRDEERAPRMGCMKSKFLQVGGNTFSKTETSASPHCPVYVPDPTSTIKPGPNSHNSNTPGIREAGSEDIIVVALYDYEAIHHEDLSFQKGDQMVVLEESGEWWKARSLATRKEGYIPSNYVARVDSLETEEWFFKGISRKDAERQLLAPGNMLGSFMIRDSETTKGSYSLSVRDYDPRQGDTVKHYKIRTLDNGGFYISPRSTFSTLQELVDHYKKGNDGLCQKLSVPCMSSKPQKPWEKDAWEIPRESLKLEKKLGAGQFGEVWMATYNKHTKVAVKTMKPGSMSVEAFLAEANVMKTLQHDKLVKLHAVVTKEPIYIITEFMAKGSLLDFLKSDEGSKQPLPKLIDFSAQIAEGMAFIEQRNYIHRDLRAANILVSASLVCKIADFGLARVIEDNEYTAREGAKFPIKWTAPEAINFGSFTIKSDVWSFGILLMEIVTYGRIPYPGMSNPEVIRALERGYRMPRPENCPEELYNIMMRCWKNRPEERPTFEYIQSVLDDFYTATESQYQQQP
LCK, sequence (P06239 whole entry): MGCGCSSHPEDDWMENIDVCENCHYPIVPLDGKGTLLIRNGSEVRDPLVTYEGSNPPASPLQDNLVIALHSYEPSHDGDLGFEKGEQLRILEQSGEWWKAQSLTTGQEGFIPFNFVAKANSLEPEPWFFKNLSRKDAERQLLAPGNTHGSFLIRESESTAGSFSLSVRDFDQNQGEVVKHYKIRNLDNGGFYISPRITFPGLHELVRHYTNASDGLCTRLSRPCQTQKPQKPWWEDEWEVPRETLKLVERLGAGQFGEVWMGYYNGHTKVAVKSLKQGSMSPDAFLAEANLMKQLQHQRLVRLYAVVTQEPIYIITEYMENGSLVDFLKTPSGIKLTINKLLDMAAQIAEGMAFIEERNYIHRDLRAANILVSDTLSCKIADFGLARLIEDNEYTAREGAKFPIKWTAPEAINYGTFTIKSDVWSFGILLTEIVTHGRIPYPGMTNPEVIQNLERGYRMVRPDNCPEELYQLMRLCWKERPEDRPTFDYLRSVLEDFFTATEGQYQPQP
BLK, sequence (P51451 whole entry): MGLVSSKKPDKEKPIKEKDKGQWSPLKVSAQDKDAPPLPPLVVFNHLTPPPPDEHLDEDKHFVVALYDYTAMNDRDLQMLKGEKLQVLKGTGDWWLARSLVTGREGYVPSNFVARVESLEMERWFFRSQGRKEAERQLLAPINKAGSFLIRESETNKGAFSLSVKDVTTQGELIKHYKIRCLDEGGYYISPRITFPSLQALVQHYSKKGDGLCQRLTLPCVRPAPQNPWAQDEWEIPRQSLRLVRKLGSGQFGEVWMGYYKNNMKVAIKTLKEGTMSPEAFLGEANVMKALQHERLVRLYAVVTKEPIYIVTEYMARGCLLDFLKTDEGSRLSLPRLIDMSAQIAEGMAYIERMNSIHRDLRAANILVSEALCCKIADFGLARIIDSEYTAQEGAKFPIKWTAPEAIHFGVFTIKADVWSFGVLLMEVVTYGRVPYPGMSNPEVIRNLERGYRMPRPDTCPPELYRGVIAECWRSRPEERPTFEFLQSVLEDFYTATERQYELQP
SRC, sequence (P12931 whole entry): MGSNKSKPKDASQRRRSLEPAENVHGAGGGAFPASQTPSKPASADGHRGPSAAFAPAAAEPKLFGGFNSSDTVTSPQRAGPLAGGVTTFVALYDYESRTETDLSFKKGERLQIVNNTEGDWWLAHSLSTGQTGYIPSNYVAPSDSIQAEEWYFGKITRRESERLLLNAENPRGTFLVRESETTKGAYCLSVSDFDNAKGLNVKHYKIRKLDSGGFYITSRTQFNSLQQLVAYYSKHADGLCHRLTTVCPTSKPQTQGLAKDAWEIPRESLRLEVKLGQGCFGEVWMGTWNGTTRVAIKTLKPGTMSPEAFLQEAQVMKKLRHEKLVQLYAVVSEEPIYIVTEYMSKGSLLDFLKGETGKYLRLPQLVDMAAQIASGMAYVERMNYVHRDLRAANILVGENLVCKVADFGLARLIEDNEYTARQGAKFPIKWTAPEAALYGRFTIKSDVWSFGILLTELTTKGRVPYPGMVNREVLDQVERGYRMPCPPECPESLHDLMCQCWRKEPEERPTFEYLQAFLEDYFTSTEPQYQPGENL
CYP2D6, sequence (P10635 whole entry): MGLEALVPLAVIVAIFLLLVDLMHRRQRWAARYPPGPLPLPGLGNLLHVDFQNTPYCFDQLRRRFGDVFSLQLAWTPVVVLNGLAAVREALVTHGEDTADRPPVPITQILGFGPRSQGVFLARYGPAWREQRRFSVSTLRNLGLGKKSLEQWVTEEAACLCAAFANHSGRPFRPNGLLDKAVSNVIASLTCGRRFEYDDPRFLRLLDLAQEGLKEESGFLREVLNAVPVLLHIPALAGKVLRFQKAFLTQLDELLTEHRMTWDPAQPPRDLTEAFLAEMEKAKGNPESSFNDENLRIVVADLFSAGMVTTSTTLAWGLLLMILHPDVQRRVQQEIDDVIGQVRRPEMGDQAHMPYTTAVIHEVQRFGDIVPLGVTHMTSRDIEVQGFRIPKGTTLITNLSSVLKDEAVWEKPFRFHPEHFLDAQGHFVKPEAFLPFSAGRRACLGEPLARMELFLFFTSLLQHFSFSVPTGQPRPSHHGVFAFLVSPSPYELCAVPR
CYP2C9, sequence (P11712 whole entry): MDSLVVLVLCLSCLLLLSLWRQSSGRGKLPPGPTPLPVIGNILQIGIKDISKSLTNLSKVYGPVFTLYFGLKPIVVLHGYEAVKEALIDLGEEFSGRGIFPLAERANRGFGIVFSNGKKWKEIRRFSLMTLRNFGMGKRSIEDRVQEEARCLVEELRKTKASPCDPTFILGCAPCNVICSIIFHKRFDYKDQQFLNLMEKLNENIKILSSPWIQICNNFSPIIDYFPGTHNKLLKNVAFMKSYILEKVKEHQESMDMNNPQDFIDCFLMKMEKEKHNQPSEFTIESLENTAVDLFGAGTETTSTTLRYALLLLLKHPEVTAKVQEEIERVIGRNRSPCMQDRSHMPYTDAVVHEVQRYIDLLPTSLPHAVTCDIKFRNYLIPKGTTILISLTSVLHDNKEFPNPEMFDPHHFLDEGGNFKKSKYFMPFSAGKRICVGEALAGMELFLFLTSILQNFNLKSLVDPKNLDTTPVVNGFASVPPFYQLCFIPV

Cc1ccc(-c2nn(CCN3CCCCC3)c3ncnc(N)c23)cc1 [7a]
EC50 (MCF7 cells [1]): 48.8 µM

Cc1ccc(-c2nn(CCN3CCN(C)CC3)c3ncnc(N)c23)cc1 [7d]
cell proliferation (% confluence over time) (MCF7 cells [2]; single dose 100 μM, 5 d, time-lapse imaging): strong inhibition of cell proliferation

Cc1ccc(-c2nn(CCN3CCC(N(C)C)CC3)c3ncnc(N)c23)cc1 [7i]
IC50 (BLK): 1.54 µM | IC50 (HCK): 1.52 µM

Cc1ccc(-c2nn(CCN3CCC(CN(C)C)CC3)c3ncnc(N)c23)cc1 [7j]
IC50 (LCK): 1.54 µM | IC50 (BLK): 2.85 µM | IC50 (FRK/PTK5): 1.63 µM | IC50 (HCK): 6.01 µM | IC50 (LYN): 1.07 µM

Cc1ccc(-c2nn(CCN3CCC(CCN(C)C)CC3)c3ncnc(N)c23)cc1 [7k]
IC50 (FGR; [14]): 0.601 µM | IC50 (LCK): 4.34 µM | IC50 (FRK/PTK5): 3.7 µM | IC50 (HCK): 11.6 µM | IC50 (LYN): 2.51 µM

CCOC(Cn1nc(-c2cnc3[nH]ccc3c2)c2c(N)ncnc21)OCC [8d, 1-(2,2-Diethoxyethyl)-3-(1H-pyrrolo[2,3-b]pyridin-5-yl)pyrazolo[3,4-d]pyrimidin-4-amine]
antiproliferative mode of action by time-lapse imaging (MCF7 cells [2]): halted cell division | IC50 (FGR; [14]): 2.13 µM | IC50 (LCK): 8.61 µM | IC50 (FRK/PTK5): 2.69 µM | IC50 (HCK): 6.77 µM | IC50 (LYN): 2.31 µM

CN(C)CC1CCN(CCn2nc(-c3cnc4[nH]ccc4c3)c3c(N)ncnc32)CC1 [9d, 1-[2-[4-(Dimethylaminomethyl)-1-piperidyl]ethyl]-3-(1H-pyrrolo[2,3-b]pyridin-5-yl)pyrazolo[3,4-d]pyrimidin-4-amine]
antiproliferative mode of action by time-lapse imaging (MCF7 cells [2]): induced cell death

COc1cc(-c2nn(CCN3CCC(N(C)C)CC3)c3ncnc(N)c23)ccc1NC(=O)OC(C)(C)C [11a, tert-Butyl N-[4-[4-amino-1-[2-[4-(dimethylamino)-1-piperidyl]ethyl]pyrazolo[3,4-d]pyrimidin-3-yl]-2-methoxy-phenyl]carbamate]
concentration with complete inhibition of phosphorylation of SRC and FAK [3]: 100 nM | concentration giving significant apoptotic cell death (caspase 3/7 activity) (MCF7 cells [4]): ≥ 100 nM | inhibition of CYP3A4 (CYP3A4): ≤ 0% | inhibition of CYP2C9 (CYP2C9): ≤ 0% | inhibition of CYP2D6 (CYP2D6): ≤ 0% | AUC (in vivo; iv): 2070 ng·h/mL | clearance (in vivo; iv): 72.3 mL/min/kg | AUC (in vivo; po): 530 ng·h/mL | Cmax (in vivo; po): 100 ng/mL | Tmax (in vivo; po): 2 h | solubility (physchem): > 100 mg/mL | hepatocyte CLint at 3 µM (in vitro [5]): 1.84 µL/min/1e6 cells | half-life at 3 µM (in vitro [6]): 1.83 h | hepatocyte CLint at 3 µM (in vitro [6]): 12.5 µL/min/1e6 cells | inhibition of CYP1A2 (CYP1A2): 24.54% | inhibition of CYP2C19 (CYP2C19): ≤ 0%

COc1cc(-c2nn(CCN3CCC(CN(C)C)CC3)c3ncnc(N)c23)ccc1NC(=O)OC(C)(C)C [11b]
antiproliferative activity in SYF cells [7]: significantly less antiproliferative activity in SYF cells than dasatinib | IC50 (ABL): 0.189 µM

COc1cc(-c2ccn(CCN3CCC(N(C)C)CC3)n2)ccc1NC(=O)OC(C)(C)C [12f]
decrease in antiproliferative activity relative to 11a (MDA-MB-231 cells [8]): > 3000 fold

COc1cc(-c2nn(CCN3CCC(N(C)C)CC3)c3ncnc(N)c23)ccc1N [12g]
EC50 (MCF7 cells [1]): 4.93 µM

COc1cc(-c2nn(CCN3CCC(N(C)C)CC3)c3ncnc(N)c23)ccc1NC(=O)CCc1ccccc1 [12k, N-[4-[4-amino-1-[2-[4-(dimethylamino)-1-piperidyl]ethyl]pyrazolo[3,4-d]pyrimidin-3-yl]-2-methoxy-phenyl]-3-phenyl-propanamide]
EC50 (MCF7 cells [1]): 7.04 µM

CN(C)C1CCN(CCn2nc(-c3ccc(NC(=O)OC(C)(C)C)c(O)c3)c3c(N)ncnc32)CC1 [12s]
decrease in antiproliferative activity relative to 11a (MDA-MB-231 cells [8]): > 200 fold | decrease in SRC inhibitory activity relative to 11a (SRC): > 200 fold

CN(C)C1CCN(CCn2nc(-c3ccc(NC(=O)OC(C)(C)C)nc3)c3c(N)ncnc32)CC1 [12u]
EC50 (MDA-MB-231 cells [8]; read-out: EC50 (MDA-MB-231), 5 d, PrestoBlue cell viability): 16.7 µM

Cc1ccc(-c2nn(C(C)(C)C)c3ncnc(N)c23)cc1 [PP1, reference compound]
IC50 (FGR): 0.0076 µM

CC(=O)CC(c1ccccc1)c1c(O)c2ccccc2oc1=O (stereo not drawn) [Warfarin]
plasma protein bound [9]: 99–100%

Cc1nc(Nc2ncc(C(=O)Nc3c(C)cccc3Cl)s2)cc(N2CCN(CCO)CC2)n1.O [dasatinib]
neuromast migration [10]: did not inhibit the migration of neuromasts | IC50 (MDA-MB-231 cells [11]): 0.0084 µM | solubility in water ([12]; pH = 2.6 ref 56): 18 mg/mL | solubility in water ([12]; pH = 7 ref 56): < 0.001 mg/mL | T1/2 ([13]; IV, 10 mg/kg, mice ref Kamath et al., 2008 (58)): 0.9 h | CL ([13]; IV, 10 mg/kg, mice ref Kamath et al., 2008): 61.7 mL/min/kg | % F [13, 15]: 17% | Cmax [13, 15]: 104 ng/mL | Tmax [13, 15]: 2 h | % F ([13]; 5 mg/kg ref Luo et al., 2006): 45% | Cmax ([13]; 5 mg/kg ref Luo et al., 2006): 58 ng/mL | Tmax ([13]; 5 mg/kg ref Luo et al., 2006): 1 h

O=c1ccc2ccc(O)cc2o1 [umbelliferone, reference compound]
half-life at 3 µM (in vitro [5]): 9.7 min | hepatocyte CLint at 3 µM (in vitro [5]): 150 µL/min/1e6 cells | half-life at 3 µM (in vitro [6]): 0.0233 h | hepatocyte CLint at 3 µM (in vitro [6]): 983 µL/min/1e6 cells
